{
  "source": "paper PMC11679793",
  "about": "“Structure-Activity Relationship Study of Majusculamide D: Overcoming Metabolic Instability and Severe Toxicity with a Fluoro Analogue” (Marine Drugs, 2024)",
  "key": {"[1]": {"system": "PANC-1 and MIA PaCa-2 pancreatic cancer cells", "test": "Wound healing assay", "type": "cell-based", "conditions": "PANC-1 and MIA PaCa-2, 24 h, concentration-dependent, vs control", "excerpt": "Figure S225. Compound 1a inhibited the migration, invasion and proliferation of pancreatic cancer cells. (A) The results of wound healing assays to investigate the effects of 1a on the migration ability against PANC-1 and MIA PaCa-2 pancreatic cancer cells. (B) The results of transwell assays to investigate the effects of 1a on the invasion ability. (C) Effects of 1a on the clonogenic ability. (D) EdU assays of 1a. (E) Western blot assays of 1a on biomarkers. Data are presented as mean ± SD, n […]\nApproximately 50% of pancreatic cancer patients show distant metastases at the time […]\ndisease. To evaluate the inhibitory effects of majusculamide D (1a) on the migratory capabilities of pancreatic cancer cells (PANC-1 and MIA PaCa-2), wound healing assays […]\nwere performed (Figure S1A). […]\nconcentration-dependent manner. […]\ninhibited the migration of these pancreatic cancer cells. Further validation with transwell […]\nconcentration-dependent manner compared to the control group (Figure S1B). Since cell migration and invasion are correlated with cancer metastasis, compound 1a may delay the progression of tumors’ local spread and distant metastasis by inhibiting the migration and invasion ability of pancreatic cancer cells. […]\nImages were taken at 0 hour and 24 hours after treatment to record and analyzed by measuring the area of the wound at each time point using ImageJ. […]"}, "[2]": {"system": "PANC-1 xenograft tumor", "experimental": "Furthermore, a xenografted murine subcutaneous tumor model was employed to evaluate the effects of majusculamide D and the optimized analogues 1c and 1n (Figure 1B). PANC1-bearing BALB/c nude mice were separated randomly, with a total of six mice in each group. Gemcitabine was chosen as the positive drug; the mice were then administered intravenous doses of 1c (5 mg/kg), 1n (5 mg/kg), 1a (5 mg/kg), and gemcitabine (20 mg/kg) every other day for 24 days.\nA total of 4 × 10^6 PANC-1 cells suspended in 100 μL PBS were subcutaneously injected into the right shoulder region of BALB/c nude mice. When the tumor volume reached approximately 200 mm^3, the mice were euthanized, and the tumor tissues were harvested and designated as F1 generation. Tumor tissues were then cut into small cubes measuring approximately 3 × 3 × 3 mm, which were implanted into new BALB/c mice to propagate the tumors. This procedure was repeated to obtain the F2 generation of tumors. Finally, mice bearing F3 generation transplant tumors were used for drug treatment experiments. When the tumor volume reached approximately 80–100 mm^3, the mice were randomly divided into five groups (n = 6): control group, 5 mg/kg compound 1a group, 5 mg/kg compound 1c group, 5 mg/kg compound 1n group, and 20 mg/kg gemcitabine group. The compounds 1a, 1c, and 1n were dissolved in DMSO and then diluted with 0.9% physiological saline to achieve a final concentration of 0.5 mg/mL as the dosing concentration. Gemcitabine was dissolved directly in 0.9% saline to achieve a final concentration of 2 mg/mL as the dosing concentration. The compounds were administered intravenously every two days, alternating between the left and right tail veins to minimize vein damage. Injections were performed using ultra-fine syringes (30G needles) to reduce stress and ensure consistent delivery. The body weight and tumor volume of the mice were measured every four days. On day 24, the mice were euthanized, and the tumor weights were recorded. Tumor volume (V) was calculated using the formula: V = (ab^2)/2, with “a” representing the long diameter of the tumor and “b” representing the short diameter of the tumor. […] Tumor weight was used to calculate the tumor inhibition rate (Figure 1G)."}},
  "data": [
    {"smiles": "CCCCC(C)CC(C)C(=O)N(C)C(Cc1ccc(OC)cc1)C(=O)NC(C(=O)N(C)C(C(=O)N1CC(O)CC1C(=O)N1C(=O)C=CC1C)C(C)C)C(C)OC(C)=O", "note": "(stereo not drawn) [Compound 1a, Majusculamide D]", "values": [
      {"measurement": "scratch wound healing rate (migration)", "setting": "[1]", "value": "significantly reduced the scratch wound healing rate"},
      {"measurement": "mortality rate among the mice", "setting": "[2]; 5 mg/kg i.v. every other day, 24 days, n = 6", "value": 50, "unit": "%"},
      {"measurement": "mice dead in treated group", "setting": "[2]; 5 mg/kg i.v., xenografted mouse model, six mice per group", "value": 3, "unit": "mice"},
      {"measurement": "tumor inhibition rate (%)", "setting": "[2]; calculated from tumor weight, day 24, 1a, 1c, 1n 5 mg/kg, gemcitabine 20 mg/kg i.v.", "value": 64.8, "unit": "%"},
      {"measurement": "tumor weight", "setting": "[2]; day 24, i.v. every other day, 1a, 1n 5 mg/kg, gemcitabine 20 mg/kg, mean ± SD", "value": "0.393 ± 0.049", "unit": "g"},
      {"measurement": "tumor volume", "setting": "[2]; i.v. every other day for 24 days, 1a, 1n 5 mg/kg, gemcitabine 20 mg/kg, mean ± SD, n = 6", "value": "353.0 ± 66.7", "unit": "mm^3"}
    ]}
  ]
}
